Experimental data: ChEMBL document CHEMBL1129734, “Synthesis and structure-activity relationships of a new model of arylpiperazines. 1. 2-[[4-(o-methoxyphenyl)piperazin-1-yl]methyl]-1, 3-dioxoperhydroimidazo[1,5-alpha]pyridine: a selective 5-HT1A receptor agonist” (J Med Chem, 1996)

Tests used:
[1] = molecular target: T1, Adrenergic receptor alpha-1 (Rattus norvegicus, UniProt P15823+P23944+P43140); experiment: Binding affinity towards alpha-1 adrenergic receptor using [3H]prazosin radioligand.; assay type: protein assay
T1 sequence (P15823 whole entry): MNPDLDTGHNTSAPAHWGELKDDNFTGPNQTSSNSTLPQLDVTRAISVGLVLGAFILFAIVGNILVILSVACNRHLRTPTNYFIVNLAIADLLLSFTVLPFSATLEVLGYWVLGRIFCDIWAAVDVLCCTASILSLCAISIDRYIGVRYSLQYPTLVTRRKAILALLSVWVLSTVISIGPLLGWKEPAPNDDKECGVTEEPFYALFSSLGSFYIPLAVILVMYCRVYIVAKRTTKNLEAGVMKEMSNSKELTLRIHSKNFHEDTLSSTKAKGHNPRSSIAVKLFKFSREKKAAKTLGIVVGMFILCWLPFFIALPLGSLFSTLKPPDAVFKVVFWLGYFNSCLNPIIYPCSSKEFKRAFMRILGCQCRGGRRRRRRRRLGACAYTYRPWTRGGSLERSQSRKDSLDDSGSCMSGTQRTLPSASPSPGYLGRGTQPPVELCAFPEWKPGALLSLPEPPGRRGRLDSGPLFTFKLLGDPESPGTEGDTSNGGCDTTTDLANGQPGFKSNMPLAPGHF
T1 sequence (P23944 whole entry): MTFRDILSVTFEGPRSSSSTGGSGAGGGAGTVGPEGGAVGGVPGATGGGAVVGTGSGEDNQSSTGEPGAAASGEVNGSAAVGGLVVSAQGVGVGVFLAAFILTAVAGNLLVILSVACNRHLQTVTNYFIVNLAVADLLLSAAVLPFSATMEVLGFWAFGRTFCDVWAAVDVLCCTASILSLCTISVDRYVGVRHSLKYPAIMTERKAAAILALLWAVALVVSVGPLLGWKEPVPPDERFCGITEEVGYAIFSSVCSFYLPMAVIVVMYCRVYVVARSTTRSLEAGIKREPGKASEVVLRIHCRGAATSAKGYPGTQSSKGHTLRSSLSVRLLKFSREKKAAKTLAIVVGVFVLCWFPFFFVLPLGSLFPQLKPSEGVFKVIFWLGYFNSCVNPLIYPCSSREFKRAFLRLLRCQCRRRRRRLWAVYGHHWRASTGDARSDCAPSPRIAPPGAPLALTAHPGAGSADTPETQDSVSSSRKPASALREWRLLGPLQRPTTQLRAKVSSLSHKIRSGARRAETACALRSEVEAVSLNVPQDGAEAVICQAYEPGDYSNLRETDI
T1 sequence (P43140 whole entry): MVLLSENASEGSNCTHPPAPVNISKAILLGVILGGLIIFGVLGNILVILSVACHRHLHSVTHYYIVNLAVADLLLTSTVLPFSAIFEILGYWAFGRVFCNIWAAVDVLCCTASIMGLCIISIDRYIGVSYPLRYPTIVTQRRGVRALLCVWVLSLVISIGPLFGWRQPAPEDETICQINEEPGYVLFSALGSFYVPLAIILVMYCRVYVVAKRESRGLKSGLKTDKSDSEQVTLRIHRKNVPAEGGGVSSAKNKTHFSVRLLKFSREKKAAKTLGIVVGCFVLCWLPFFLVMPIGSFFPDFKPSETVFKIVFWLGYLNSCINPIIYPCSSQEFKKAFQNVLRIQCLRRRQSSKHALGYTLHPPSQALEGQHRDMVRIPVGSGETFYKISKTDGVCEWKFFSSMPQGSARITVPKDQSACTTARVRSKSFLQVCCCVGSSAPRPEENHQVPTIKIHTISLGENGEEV

Mus musculus [2] = experiment: Effect on rectal temperature in mice at dose of 10 mg/kg sc.; assay type: functional
[3] = molecular target: T2, 5-hydroxytryptamine receptor 1A (Rattus norvegicus, UniProt P19327); experiment: Binding affinity towards rat 5-hydroxytryptamine 1A receptor using [3H]8-OH-DPAT radioligand.
T2 sequence (P19327 whole entry): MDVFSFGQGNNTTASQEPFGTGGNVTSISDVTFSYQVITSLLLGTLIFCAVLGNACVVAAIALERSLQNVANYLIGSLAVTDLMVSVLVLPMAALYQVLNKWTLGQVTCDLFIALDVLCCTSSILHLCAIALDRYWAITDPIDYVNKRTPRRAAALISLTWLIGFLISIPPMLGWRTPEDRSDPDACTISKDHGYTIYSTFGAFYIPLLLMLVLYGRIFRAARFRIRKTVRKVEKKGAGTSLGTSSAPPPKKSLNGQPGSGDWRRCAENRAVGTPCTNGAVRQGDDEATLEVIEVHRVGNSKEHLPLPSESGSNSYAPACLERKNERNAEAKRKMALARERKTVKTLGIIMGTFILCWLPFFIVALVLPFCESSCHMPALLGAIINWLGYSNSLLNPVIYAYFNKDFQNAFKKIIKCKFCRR

D(2) dopamine receptor = D(2) dopamine receptor (Rattus norvegicus, UniProt P61169); experiment: Binding affinity towards dopamine receptor D2 using [3H]-raclopride radioligand.
Mus musculus [4] = experiment: Effect on rectal temperature in mice at dose of 2.5 mg/kg sc.; assay type: functional
Mus musculus [5] = experiment: Effect on rectal temperature in mice at dose of 10 mg/kg po.; assay type: functional
Mus musculus [6] = experiment: Effect on rectal temperature in mice at dose of 40 mg/kg po; assay type: functional
Mus musculus [7] = experiment: Effect on rectal temperature in mice at dose of 5 mg/kg sc.; assay type: functional
Mus musculus [8] = experiment: Effect on rectal temperature in mice at dose of 0.5 mg/kg sc.; assay type: functional
Mus musculus [9] = species: Mus musculus; experiment: Effect in the social interaction behavioral test in mice; assay type: functional
Mus musculus [10] = experiment: Effect on rectal temperature in mice at dose of 20 mg/kg sc.; assay type: functional
Mus musculus [11] = experiment: Effect on rectal temperature in mice at dose of 20 mg/kg po; assay type: functional
Mus musculus [12] = experiment: Effect on rectal temperature in mice at dose of 30 mg/kg po; assay type: functional
[13] = molecular target: 5-hydroxytryptamine receptor 2A (Rattus norvegicus, UniProt P14842); experiment: Compound was evaluated for the binding affinity towards 5-hydroxytryptamine 2A receptor using [3H]ketanserin radioligand.
Sequence of 5-hydroxytryptamine receptor 2A (P14842 whole entry): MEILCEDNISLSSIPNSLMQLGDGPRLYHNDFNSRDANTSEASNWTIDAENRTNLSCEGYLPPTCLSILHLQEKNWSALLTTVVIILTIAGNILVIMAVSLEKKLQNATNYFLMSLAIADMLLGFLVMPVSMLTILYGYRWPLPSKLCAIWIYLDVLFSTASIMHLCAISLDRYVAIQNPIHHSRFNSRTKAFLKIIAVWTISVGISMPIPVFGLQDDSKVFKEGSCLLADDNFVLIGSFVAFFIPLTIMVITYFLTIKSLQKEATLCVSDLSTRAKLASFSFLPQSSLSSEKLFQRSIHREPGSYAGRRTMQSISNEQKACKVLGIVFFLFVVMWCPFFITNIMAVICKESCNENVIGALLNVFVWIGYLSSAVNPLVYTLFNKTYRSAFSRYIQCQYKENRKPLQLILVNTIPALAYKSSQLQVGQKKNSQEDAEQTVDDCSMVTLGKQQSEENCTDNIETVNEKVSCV

Sequence of D(2) dopamine receptor (P61169 whole entry): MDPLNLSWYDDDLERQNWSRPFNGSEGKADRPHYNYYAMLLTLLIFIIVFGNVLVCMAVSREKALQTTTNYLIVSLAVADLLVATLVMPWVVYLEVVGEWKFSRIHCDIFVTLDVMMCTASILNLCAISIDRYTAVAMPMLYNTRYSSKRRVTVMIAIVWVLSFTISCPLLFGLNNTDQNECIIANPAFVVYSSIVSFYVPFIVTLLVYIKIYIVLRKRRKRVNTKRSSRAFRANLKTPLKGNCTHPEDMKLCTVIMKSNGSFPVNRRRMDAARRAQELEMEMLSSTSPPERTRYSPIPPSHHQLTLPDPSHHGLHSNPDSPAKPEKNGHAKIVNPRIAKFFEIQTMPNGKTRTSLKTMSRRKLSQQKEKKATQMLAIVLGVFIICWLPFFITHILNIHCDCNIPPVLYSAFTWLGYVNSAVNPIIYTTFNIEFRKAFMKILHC

Structure (SMILES)	Ki [1] [nM]	T decrease (Mus musculus [2]) [°C]	Ki [3] [nM]	Ki (D(2) dopamine receptor) [nM]	T decrease (Mus musculus [4]) [°C]	T decrease (Mus musculus [5]) [°C]	T decrease (Mus musculus [6]) [°C]	T decrease (Mus musculus [7]) [°C]	T decrease (Mus musculus [8]) [°C]	ED50 (Mus musculus [9]) [mg/kg]	Max effect (Mus musculus [9]) [s]	T decrease (Mus musculus [10]) [°C]	T decrease (Mus musculus [11]) [°C]	T decrease (Mus musculus [12]) [°C]	Ki [13] [nM]
O=C1C2CCCCN2C(=O)N1CCCCN1CCN(c2cccc(C(F)(F)F)c2)CC1 (stereo not given)	72.4	-1.55	9.9	90.6	-0.77	0.07	-1	-0.92	-0.58	1.25	56.5	-2.73	-0.55	-1.23	
CCCN(CCC)C1CCc2cccc(O)c2C1 (stereo not given) [8-OH-DPAT]		-2.26			-1.7			-1.66	-0.9	0.58	132.2				
COc1ccccc1N1CCN(CN2C(=O)C3CCCCN3C2=O)CC1 (stereo not given)	> 1000	-1.46	31.7	> 10000	0.06	-0.3	-0.85	-0.78	0.37	3.58	130.8	-1.56	0.22	-0.28	> 1000
